# Measured values: patent US7875647B2, “Heteroaryl-pyrazole derivatives as cannabinoid CB1 receptor antagonists” (Green Cross Corporation, priority 2006, dated 2011)
# Target: T1, Cannabinoid-1 receptor (CB1R) (Rattus norvegicus, UniProt P20272)
# T1 construct: The tissue obtained from the brain of SD rats was homogenized; from tissue; host or cells: brain of SD rats (membrane pellet of the homogenate)
# Assay: Cannabinoid-1 receptor (CB1R) binding affinity assay ([3H]CP-55940, rat CB-1 receptor binding protocol)
# Settings: IC50(nM), brain tissue of SD rats, [3H]CP-55940, 30° C. 60 min
# T1 sequence (P20272 whole entry): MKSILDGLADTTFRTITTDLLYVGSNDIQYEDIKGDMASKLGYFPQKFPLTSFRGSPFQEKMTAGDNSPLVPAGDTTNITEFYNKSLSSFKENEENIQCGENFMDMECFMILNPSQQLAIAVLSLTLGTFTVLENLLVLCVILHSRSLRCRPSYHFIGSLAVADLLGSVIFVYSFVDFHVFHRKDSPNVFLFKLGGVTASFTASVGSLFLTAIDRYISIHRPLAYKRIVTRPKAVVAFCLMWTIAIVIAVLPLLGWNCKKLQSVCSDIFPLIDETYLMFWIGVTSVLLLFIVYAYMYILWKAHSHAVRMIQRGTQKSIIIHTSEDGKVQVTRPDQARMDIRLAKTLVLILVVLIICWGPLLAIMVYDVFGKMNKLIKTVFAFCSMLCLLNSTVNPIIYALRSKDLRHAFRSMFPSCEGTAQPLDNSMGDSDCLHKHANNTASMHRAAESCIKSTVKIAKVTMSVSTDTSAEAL
row,Structure (SMILES),IC50 [nM]
1,"Cc1c(-c2nc3c(o2)CCCC3)nn(-c2ccc(Cl)cc2Cl)c1-c1ccc(Cl)cc1 [Example 642, 2-(5-(4-chlorophenyl)-1-(2,4-dichlorophenyl)-4-methyl-1H-pyrazol-3-yl)-4,5,6,7-tetrahydrobenzo[d]oxazole]",44.2

# Same assay, conditions: brain tissue of SD rats, [3H]CP-55940, 30° C. 60 min; read-out: IC50
row,Structure (SMILES),IC50 [nM]
1,"Cc1c(-c2nnc(C3(C(F)(F)F)CC3)o2)nn(-c2ccc(Cl)cc2Cl)c1-c1ccc(Cl)cc1 [Example 132, 2-(5-(4-chlorophenyl)-1-(2,4-dichlorophenyl)-4-methyl-1H-pyrazol-3-yl)-5-(1-(trifluoromethyl)cyclopropyl)-1,3,4-oxadiazole]",8.53
2,"CC(C)(C)c1nnc(-c2nn(-c3ccc(Cl)cc3Cl)c(-c3ccc(Cl)cc3)c2Cl)o1 [Example 337, 2-tert-butyl-5-(4-chloro-5-(4-chlorophenyl)-1-(2,4-dichlorophenyl)-1H-pyrazol-3-yl)-1,3,4-oxadiazole]",105
3,"CC(C)(C)c1nnc(-c2nn(-c3ccc(Cl)cc3Cl)c(-c3ccc(Br)cc3)c2CO)o1 [Example 200, (5-(4-bromophenyl)-3-(5-tert-butyl-1,3,4-oxadiazol-2-yl)-1-(2,4-dichlorophenyl)-1H-pyrazol-4-yl)methanol]",6.35
4,"COC(=O)NC(C)c1c(-c2nnc(C3(c4ccc(Cl)cc4)CC3)o2)nn(-c2ccc(Cl)cc2Cl)c1-c1ccc(Cl)cc1 (stereo not shown) [Example 231, Methyl 1-(5-(4-chlorophenyl)-3-(5-(1-(4-chlorophenyl)cyclopropyl)-1,3,4-oxadiazol-2-yl)-1-(2,4-dichlorophenyl)-1H-pyrazol-4-yl)ethylcarbamate]",4.06
5,"CC(C)(C)c1nnc(-c2nn(-c3ccc(Cl)cc3Cl)c(-c3ccc(Cl)cc3)c2CF)o1 [Example 221, 2-tert-butyl-5-(5-(4-chlorophenyl)-1-(2,4-dichlorophenyl)-4-(fluoromethyl)-1H-pyrazol-3-yl)-1,3,4-oxadiazole]",14.7
6,"CCC(C)c1nnc(-c2nn(-c3ccc(Cl)cc3Cl)c(-c3ccc(Cl)cc3)c2Br)o1 (stereo not shown) [Example 339, 2-(4-bromo-5-(4-chlorophenyl)-1-(2,4-dichlorophenyl)-1H-pyrazol-3-yl)-5-sec-butyl-1,3,4-oxadiazole]",21.3
7,"CC(C)(C)c1nnc(-c2nn(-c3ccc(Cl)cc3Cl)c(-c3ccc(Cl)cc3)c2Br)o1 [Example 338, 2-(4-bromo-5-(4-chlorophenyl)-1-(2,4-dichlorophenyl)-1H-pyrazol-3-yl)-5-tert-butyl-1,3,4-oxadiazole]",30.4
8,"FCc1c(-c2nnc(C3(c4ccc(Cl)cc4)CC3)o2)nn(-c2ccc(Cl)cc2Cl)c1-c1ccc(Cl)cc1 [Example 223, 2-(5-(4-chlorophenyl)-1-(2,4-dichlorophenyl)-4-(fluoromethyl)-1H-pyrazol-3-yl)-5-(1-(4-chlorophenyl)cyclopropyl)-1,3,4-oxadiazole]",7.89
9,"Cc1c(-c2nnc(C(C)(C)CO)o2)nn(-c2ccc(Cl)cc2Cl)c1-c1ccc(Cl)cc1 [Example 253, 2-(5-(5-(4-chlorophenyl)-1-(2,4-dichlorophenyl)-4-methyl-1H-pyrazol-3-yl)-1,3,4-oxadiazol-2-yl)-2-methylpropan-1-ol]",97.9
10,"Cc1c(-c2nnc(Cc3ccccn3)s2)nn(-c2ccc(Cl)cc2Cl)c1-c1ccc(Cl)cc1 [Example 352, 2-(5-(4-chlorophenyl)-1-(2,4-dichlorophenyl)-4-methyl-1H-pyrazol-3-yl)-5-(pyridin-2-ylmethyl)-1,3,4-thiadiazole]",41.2
11,"CC(C)(C)c1nnc(-c2nn(-c3ccc(Cl)cc3Cl)c(-c3ccc(Cl)cc3)c2CN2CCOC2=O)o1 [Example 307, 3-((3-(5-tert-butyl-1,3,4-oxadiazol-2-yl)-5-(4-chlorophenyl)-1-(2,4-dichlorophenyl)-1H-pyrazol-4-yl)methyl)oxazolidin-2-one]",125
12,"Clc1ccc(-c2c(Br)c(-c3nnc(C4(c5ccc(Cl)cc5)CC4)o3)nn2-c2ccc(Cl)cc2Cl)cc1 [Example 344, 2-(4-bromo-5-(4-chlorophenyl)-1-(2,4-dichlorophenyl)-1H-pyrazol-3-yl)-5-(1-(4-chlorophenyl)cyclopropyl)-1,3,4-oxadiazole]",11.6

# Results, then the compound that gave them:
row,IC50 [nM],Structure (SMILES)
1,18.8,"CCc1c(-c2nnc(C3(c4ccc(C)cc4)CC3)s2)nn(-c2ccc(Cl)cc2Cl)c1-c1ccc(Br)cc1 [Example 474, 2-(5-(4-bromophenyl)-1-(2,4-dichlorophenyl)-4-ethyl-1H-pyrazol-3-yl)-5-(1-p-tolylcyclopropyl)-1,3,4-thiadiazole]"
2,23,"CCc1c(-c2nnc(C3(c4ccc(Cl)cc4)CCCC3)s2)nn(-c2ccc(Cl)cc2Cl)c1-c1ccc(Br)cc1 [Example 486, 2-(5-(4-bromophenyl)-1-(2,4-dichlorophenyl)-4-ethyl-1H-pyrazol-3-yl)-5-(1-(4-chlorophenyl)cyclopentyl)-1,3,4-thiadiazole]"
3,8.75,"CCc1c(-c2nnc(C3(c4ccccc4)CC3)s2)nn(-c2ccc(Cl)cc2Cl)c1-c1ccc(Br)cc1 [Example 475, 2-(5-(4-bromophenyl)-1-(2,4-dichlorophenyl)-4-ethyl-1H-pyrazol-3-yl)-5-(1-phenylcyclopropyl)-1,3,4-thiadiazole]"
4,7.5,"Cc1c(-c2nnc(C3(c4ccc(Cl)cc4)CCC3)s2)nn(-c2ccc(Cl)cc2Cl)c1-c1ccc(Cl)cc1 [Example 431, 2-(5-(4-chlorophenyl)-1-(2,4-dichlorophenyl)-4-methyl-1H-pyrazol-3-yl)-5-(1-(4-chlorophenyl)cyclobutyl)-1,3,4-thiadiazole]"
5,226,"CCC(C)c1nnc(-c2nn(-c3ccc(Cl)cc3Cl)c(-c3ccccc3)c2C)s1 (stereo not shown) [Example 422, 2-sec-butyl-5-(1-(2,4-dichlorophenyl)-4-methyl-5-phenyl-1H-pyrazol-3-yl)-1,3,4-thiadiazole]"
6,2.34,"Clc1ccc(-c2c(Cn3cncn3)c(-c3nnc(C4(c5ccc(Cl)cc5)CCC4)s3)nn2-c2ccc(Cl)cc2Cl)cc1 [Example 513, 2-(4-((1H-1,2,4-triazol-1-yl)methyl)-5-(4-chlorophenyl)-1-(2,4-dichlorophenyl)-1H-pyrazol-3-yl)-5-(1-(4-chlorophenyl)cyclobutyl)-1,3,4-thiadiazole]"
7,18.4,"CCC(C)c1nnc(-c2nn(-c3ccccc3Cl)c(-c3ccc(Cl)cc3)c2C)s1 (stereo not shown) [Example 407, 2-sec-butyl-5-(1-(2-chlorophenyl)-5-(4-chlorophenyl)-4-methyl-1H-pyrazol-3-yl)-1,3,4-thiadiazole]"
8,3.95,"CCc1c(-c2nnc(C3(c4ccc(Cl)cc4)CC3)s2)nn(-c2ccc(Cl)cc2Cl)c1-c1ccc(Cl)cc1 [Example 463, 2-(5-(4-chlorophenyl)-1-(2,4-dichlorophenyl)-4-ethyl-1H-pyrazol-3-yl)-5-(1-(4-chlorophenyl)cyclopropyl)-1,3,4-thiadiazole]"
9,653,"Clc1ccc(-c2c(Cl)c(-c3nnc(C4CCCCC4)s3)nn2-c2ccc(Cl)cc2Cl)cc1 [Example 538, 2-(4-chloro-5-(4-chlorophenyl)-1-(2,4-dichlorophenyl)-1H-pyrazol-3-yl)-5-cyclohexyl-1,3,4-thiadiazole]"
10,68.9,"CCCn1nnnc1-c1nn(-c2ccc(Cl)cc2Cl)c(-c2ccc(Cl)cc2)c1C [Example 565, 5-(5-(4-Chlorophenyl)-1-(2,4-dichlorophenyl)-4-methyl-1H-pyrazol-3-yl)-1-propyl-1H-tetrazole]"
11,18.2,"CCc1c(-c2nnc(C3CCCCC3)s2)nn(-c2ccc(Cl)cc2Cl)c1-c1ccc(Cl)cc1 [Example 390, 2-(5-(4-chlorophenyl)-1-(2,4-dichlorophenyl)-4-ethyl-1H-pyrazol-3-yl)-5-cyclohexyl-1,3,4-thiadiazole]"

# System: DIO mice
# Assay: Chronic effects in DIO mice (body weight change, oral administration for 14 days)
# Type: in vivo
# Settings: DIO mice (male C57BL/6J), 10 mg/kg, FIG. 1
# Protocol: Male C57BL/6J mice weighing over 38 g were housed 1 per cage on a 12-/12-h light/dark cycle, had free access to food (rodent sterilizable diet) and water, and were experimentally native before testing. Mice were allowed at least 7 days to habituate to the experimental room prior to testing, and testing was conducted during the light period. Mice were maintained and experiments were conducted in accordance with the Institutional Animal Care.
# By oral administration, animals received at a volume of 10 ml/kg for 14 days. All control animals received 10% DMSO dissolved in deionized water.
# The vehicles 10% DMSO treated group were comprised of 5 mice in oral test. There were 6 mice in each of the other experimental groups (n=6 in each group). By oral administration, the losing weight was checked everyday for the drug treated group and the control group.
row,Structure (SMILES),Body weight change from day 0
1,"CC(C)(C)c1nnc(-c2nn(-c3ccc(Cl)cc3Cl)c(-c3ccc(Cl)cc3)c2Cn2cncn2)s1 [Example 502, 2-(4-((1H-1,2,4-triazol-1-yl)methyl)-5-(4-chlorophenyl)-1-(2,4-dichlorophenyl)-1H-pyrazol-3-yl)-5-tert-butyl-1,3,4-thiadiazole]",observed on all days
2,"Cc1c(-c2nnc(C3(C(F)(F)F)CC3)o2)nn(-c2ccc(Cl)cc2Cl)c1-c1ccc(Cl)cc1 [Example 132, 2-(5-(4-chlorophenyl)-1-(2,4-dichlorophenyl)-4-methyl-1H-pyrazol-3-yl)-5-(1-(trifluoromethyl)cyclopropyl)-1,3,4-oxadiazole]",observed on all days
3,"Cc1c(C(=O)NN2CCCCC2)nn(-c2ccc(Cl)cc2Cl)c1-c1ccc(Cl)cc1 [rimonabant, reference compound]",observed on all days
4,"CCc1c(-c2nnc(C3(C(F)(F)F)CC3)o2)nn(-c2ccc(Cl)cc2Cl)c1-c1ccc(Cl)cc1 [Example 155, 2-(5-(4-chlorophenyl)-1-(2,4-dichlorophenyl)-4-ethyl-1H-pyrazol-3-yl)-5-(1-(trifluoromethyl)cyclopropyl)-1,3,4-oxadiazole]",observed on all days
